Here are results for four compounds from patent publication US7833532B2, “Immunogenic lipopeptides comprising T-helper and cytotoxic T lymphocyte (CTL) epitopes” (The Council of The Queensland Institute of Medical Research, priority 2002, dated 2010).

Where “and” joins values, the source holds several entries; their conditions need not be identical. Equal values may be shown once.

Series [1] concerns syngeneic spleen cells pulsed with the CTL determinant. The note with it: mouse.
A further series has as its system D1 cells. As to the kind of experiment: Maturation of D1 dendritic cells (surface MHC class II, flow cytometry). The format is cell-based, BALB/c mouse. The note with it: D1 cells, overnight incubation, 0.45 nmoles/mL; LPS positive control.
The next series deals with Mem 71 influenza virus. The conditions noted are these: in vivo.
The next series relates to B16-OVA cells. The series can be described thus: Protection against B16-OVA melanoma challenge (tumour growth). The conditions noted are these: 20 nmoles s.c., 2×10^5 B16-OVA cells 14 days later. The format is in vivo, C57BL/6 mice. The text has this:
FIG. 13 is a graphical representation showing protection against B16 melanoma with lipopeptide vaccination. C57BL/6 mice were vaccinated with 20 nmoles lipidated peptide [P25]-Lys(Pam2Cys-Ser-Ser)-[[…]] ([…] disclosed as SEQ ID NO: 173) (open circles), non-lipidated peptide [P25]-Lys-[[…]] ([…] disclosed as SEQ ID NO: 173) (open triangles) or with PBS (open squares) subcutaneously in the base of the tail. Mice were then challenged s.c. on the back 14 days later with 2×10^5 B16-OVA cells (n=6 per group) and tumour growth monitored as described (Anraku, et al., J Virol. 76; 3791-3799, 2002).
(§1) Each of 9 C57BL/6 mice (8-10 wks) were immunised subcutaneously with 20 nmoles of lipidated [P25]-Lys(Pam2Cys-Ser-Ser)-[[…]] ([…] disclosed as SEQ ID NO: 173) or non-lipidated [P25]-Lys-[[…]] ([…] disclosed as SEQ ID NO: 173) peptide in 100 μl volume of saline. In the case of lipidated peptide, lipid was attached between the two epitopes at the approximate centre of the molecule.
14 days after inoculation with non-lipidated [P25]-Lys-[[…]] ([…] disclosed as SEQ ID NO: 173) or lipidated peptide [P25]-Lys(Pam2Cys-Ser-Ser)-[[…]] […] Growing tumors were monitored, and the animals were sacrificed when tumor size reached 15 by 15 mm. Mean tumor area was calculated for each treatment group at the indicated number of days after the tumor challenge.

A further series has as its system splenocytes. The series can be described thus: IFN-gamma secreting splenocytes in mice vaccinated with […] peptides and challenged with B16-OVA. The format is in vivo, C57BL/6 mice. The conditions noted are these: 20 nmoles s.c., B16-OVA challenge; for No. IFN-γ secreting splenocytes per 10^6 splenocytes, Average: average of three samples; for No. IFN-γ secreting splenocytes per 10^6 splenocytes: individual samples, in vitro stimulation with SIINFEKL
The method, then: as §1
CTL-specific IFN-γ-secreting cells were enumerated by an ELISPOT assay modified from that of Murali-Krishna et al., Immunity 8, 177-187, 1998. Flat-bottom polyvinyl chloride microtiter plates (96-well: Dynatech) were coated overnight with 50 μl of rat anti-(mouse IFN-γ) antibody (clone R4-14a2) at 5 μg/ml in PBS. Unoccupied sites on the wells were then blocked by incubation for 1 h with 10 mg of bovine serum albumin/ml in PBS, and the plates were washed three times with PBS containing 0.05% Tween 20 (PBST). Twofold dilutions of spleen or lymph node cells in T-cell medium were then added to the wells, together with 5×10^5 irradiated (2,200 rads, ^60Co source) syngeneic spleen cells from unimmunized mice and 10 U of recombinant human interleukin-2 (Pharmingen, San Diego, Calif.)/well. Cells were incubated at 37° C. in 5% CO2 for 18 h in the presence or absence of the CTL peptide at a concentration of 1 μg of peptide/ml. Cells were then lysed and removed by rinsing the plates, initially with distilled water and then PBST. Then, 50 μl of a 1/500 dilution of biotinylated anti-(mouse IFN-γ) antibody (clone XMG 1.2; Pharmingen) was added, and the plates were incubated at room temperature for 2 h. Plates were again washed, and 50 μl of streptavidin-alkaline phosphatase (Pharmingen; 1/400 dilution in 5 mg of bovine serum albumin/ml of PBST) was added to each well; the mixtures were then incubated for a further 2 h. […] When blue-green spots had developed, the plates were washed with water and dried, and the spots were counted with the aid of an inverted microscope.
The ability of the lipopeptide vaccine containing the ovalbumin CTL epitope ([…]) (SEQ ID NO: 173) to induce protection against melanoma cells expressing this CTL epitope (B16-OVA cells) was assessed. IFN-γ production was determined in mice inoculated with lipopeptide comprising a CDV-F T-helper epitope (P25) and a CTL epitope ([…]) (SEQ ID NO: 173) of ovalbumin linked via the epsilon amino group of an internal lysine residue positioned between said epitopes to Pam2Cys (i.e. the peptide [P25]-Lys(Pam2Cys-Ser-Ser)-[[…]] ([…] disclosed as SEQ ID NO: 173) listed in FIG. 2 and based upon SEQ ID NO: 174). […] (SEQ ID NO: 173) and the number of IFN-γ producing cells per 1,000,000 splenocytes was measured.

Series [2] relates to Lewis Lung tumour cells transfected with ovalbumin. As to the kind of experiment: Therapeutic treatment of Lewis Lung tumour expressing ovalbumin (tumour incidence and survival). It is filed as in vivo, mice. The conditions noted are these: 20 nmoles s.c. 4 and 11 days after tumour cells; versus non-lipidated peptide or PBS. The method, then:
FIG. 14 is a graphical representation showing therapeutic treatment of Lewis Lung tumour with a lipopeptide immunogen, as determined by the percentage of animals that remain tumor free following immunization. Mice were injected with 3×10^4 Lewis Lung tumour cells that had been transfected with ovalbumin and therefore expressed the CTL epitope […] (SEQ ID NO: 173) [Nelson et al. J Immunol. 166: 5557-5566, 2001]. Four days after receiving tumour cells, animals were inoculated with 20 nmoles lipidated peptide [P25]-Lys(Pam2Cys-Ser-Ser)-[[…]] ([…] disclosed as SEQ ID NO: 173) (open circles), non-lipidated peptide [P25]-Lys-[[…]] […] Animals were monitored for tumour incidence; animals were euthanased when tumour area exceeded 100 mm^2.
FIG. 15 is a graphical representation showing therapeutic treatment of Lewis Lung tumour with a lipopeptide immunogen, as determined by measuring survival of animals following immunization. […] Animals were monitored for survival; animals were euthanased when tumour area exceeded 100 mm^2.
Mice were injected with 3×10^4 Lewis Lung tumour cells that had been transfected with ovalbumin and therefore expressed the CTL epitope (Nelson et al., J Immunol. 166: 5557-5566, 2001). […] Animals were monitored for tumour incidence and survival; animals were euthanased when tumour area exceeded 100 mm^2.

For `CCCCCCCCCCCCCCCC(=O)N[C@@H](CSCC(COC(=O)CCCCCCCCCCCCCCC)OC(=O)CCCCCCCCCCCCCCC)C(=O)N[C@@H](CO)C(=O)N[C@@H](CO)C(=O)NCCCC[C@H](NC(=O)[C@H](CO)NC(=O)[C@H](CCCCN)NC(=O)[C@H](CC(C)C)NC(=O)[C@H](CCC(=O)O)NC(=O)[C@@H](NC(=O)CNC(=O)[C@H](CCCCN)NC(=O)[C@@H](NC(=O)[C@H](CCC(N)=O)NC(=O)[C@H](Cc1ccccc1)NC(=O)[C@H](CCCNC(=N)N)NC(=O)[C@H](CC(N)=O)NC(=O)[C@H](CC(N)=O)NC(=O)[C@H](CC(C)C)NC(=O)[C@H](C)N)[C@@H](C)CC)C(C)C)C(=O)N[C@H](C(=O)N[C@@H](Cc1ccc(O)cc1)C(=O)N[C@@H](CCC(N)=O)C(=O)N[C@@H](CCCNC(=N)N)C(=O)N[C@H](C(=O)N[C@@H](CCCNC(=N)N)C(=O)N[C@@H](C)C(=O)N[C@@H](CC(C)C)C(=O)N[C@H](C(=O)O)C(C)C)[C@@H](C)O)[C@@H](C)O` (stereo partly drawn) [[Th]-Lys(Pam3Cys-Ser-Ser)-[CTL]], in series [1], the “CTL determinant specific cytotoxicity (specific lysis) in vivo” value was “marked enhancement of specific lysis in vivo”.

As to “ALNNRFQIKGVELKSKTYQRTRALV [[Th]-Lys-[CTL]]”, the “maturation of dendritic cells / up-regulation of MHC class II expression (comparative, in words)” value with D1 cells is reported as “least effective”. In the series with Mem 71 influenza virus, the “reduction in viral load in the lungs compared to PBS alone” value is 65%.

“KLIPNASLIENCTKAELKSIINFEKL [reference compound]”: the tumour size entry with B16-OVA cells (15 day period) is recorded as “greater than 75 mm^2”. In the series on splenocytes, the “No. IFN-γ secreting splenocytes per 10^6 splenocytes, Average” value was determined as 14 per 10^6 splenocytes; the “No. IFN-γ secreting splenocytes per 10^6 splenocytes” value was 18 per 10^6 splenocytes and 14 per 10^6 splenocytes and 10 per 10^6 splenocytes.

In the case of “[P25]-Lys(Pam2Cys-Ser-Ser)-[SIINFEKL]: peptide [P25]-Lys-[SIINFEKL] and a lipid of the Formula (IV) conjugated to the epsilon-amino group of the internal lysine (KLIPNASLIENCTKAELKSIINFEKL; Pam2Cys-Ser-Ser lipid on internal lysine)”, the “tumour growth (in words)” value in the series with B16-OVA cells (over a 15 day period) is recorded as “No tumour growth”. Also, in the series on splenocytes, the “No. IFN-γ secreting splenocytes per 10^6 splenocytes, Average” value is 227 per 10^6 splenocytes; the “No. IFN-γ secreting splenocytes per 10^6 splenocytes” value was 284 per 10^6 splenocytes and 205 per 10^6 splenocytes and 192 per 10^6 splenocytes. Also, in series [2], the “percentage of animals with fewer lesions developing (tumour free)” value is given as “significantly higher” and the survival entry is reported as “survived for longer”.
